# Laboratory results from US5789531A, “Peptide-based inhibitors of HIV replication” (Allex Biopharmaceuticals, Inc., priority 1995, dated 1998).
# Several values for one entry are separate records, joined by “and”; a condition that tells them apart may be missing. Identical values can stand only once. Like-named read-outs stand apart in the source and are kept apart here.
# Tests used:
# HIV (strain NL4-3) = format: cell-based; details: for PH Titers: HuT78 cells, 5 uM pretreatment, 10 uM after infection
# Description: Controls used water in place of peptide.
# [1] = test system: variant of TAR (SEQ ID NO:14) which does not bind tat; experiment: RNA gel mobility shift assay with non-functional TAR variant (specificity); format: binding, HIV; details: functional TAR fragment vs non-functional TAR variant
# Experimental: (§1) TAR-binding affinity of the oligopeptides relative to HIV tat(1-86) and relative to tat fragments representing the tat basic domain, was evaluated by RNA gel mobility shift assay using as ligand a truncated functional form of TAR RNA having the sequence (SEQ ID NO:13) shown below.
# Synthesis of the TAR fragment and its variant analogue was accomplished as described by Roy et al. in Genes and Development, 1990, 4:1365. The TAR-binding assay was also performed in the manner reported by Roy et al, supra, which is incorporated herein by reference.
# [2] = test system: truncated functional form of TAR RNA (SEQ ID NO:13); experiment: RNA gel mobility shift TAR-binding assay; set-up: species or system HIV; details: relative to tat (1-86) and the oligopeptide representing the tat basic domain
# Experimental: This assay generally involves the incubation of a selected oligopeptide with gel-purified, radio-labelled TAR RNA, or tat-binding fragment of TAR RNA, that has been produced either by direct synthesis or through transcription of a corresponding DNA template. Samples are loaded onto non-denaturing polyacrylamide gel and subjected to electrophoresis, and then migration of labelled RNA through the gel is visualized on gel-exposed, X-ray film. Oligopeptides which bind TAR are identified in this assay by their characteristic, retarded migration on the gel, relative to TAR RNA to which no oligopeptide has bound. In this mobility shift assay, oligopeptides having an "enhanced" affinity for binding TAR RNA will resolve on the gel as bands which, in addition to displaying the retarded migration pattern characteristic of TAR-binding oligopeptides, will also appear with greater intensity and/or size than a band containing TAR RNA bound to tat (1-86).
# as §1
# Synthesis of the TAR fragment and its variant analogue was accomplished as described by Roy et al. in Genes and Development, 1990, 4:1365. […]
# HuT78 cells = experiment: Host cell replication in presence of peptide
# yeast tRNA = experiment: TAR binding compared with yeast tRNA binding
# tat = details: Green et al, Cell 1989, 58:215; cited from earlier work
molecule,measurement,setting,value
"CC(=O)N[C@H](CCCNC(=N)N)C(=O)N[C@H](CCCNC(=N)N)C(=O)N[C@H](CCCNC(=N)N)C(=O)N[C@H](CCCNC(=N)N)C(=O)N[C@H](CCCNC(=N)N)C(=O)N[C@H](CCCNC(=N)N)C(=O)N[C@H](CCCNC(=N)N)C(=O)N[C@H](CCCNC(=N)N)C(=O)N[C@H](CCCNC(=N)N)C(N)=O [4C, acetyl-[D-Arg]9 --NH2]",PH Titers,"HIV (strain NL4-3); 7 Day Pretreatment, Day 4 after infection, listed as 4C1",168.4 pg/mL and 98.08 pg/mL
same,PH Titers,"HIV (strain NL4-3); 7 Day Pretreatment, Day 4 after infection, listed as 4C2",131.5 pg/mL and 93.76 pg/mL
same,PH Titers,"HIV (strain NL4-3); 14 Day Pretreatment, Day 4 after infection, listed as 4C1",152.5 pg/mL
same,PH Titers,"HIV (strain NL4-3); 14 Day Pretreatment, Day 4 after infection, listed as 4C2",129.0 pg/mL
same,PH Titers,"HIV (strain NL4-3); 14 Day Pretreatment, Day 7 after infection, listed as 4C1",175.1 pg/mL
same,PH Titers,"HIV (strain NL4-3); 14 Day Pretreatment, Day 7 after infection, listed as 4C2",133.6 pg/mL
same,"inhibition of viral replication, as measured by p24 assay","HIV (strain NL4-3); at the concentration tested (5 uM), FIG. 1",≥ 95%
same,specificity for binding to the functional TAR fragment relative to the TAR variant,[1],specificity comparable to the wild type basic domain
same,TAR-binding affinity,[2],TAR-binding affinity comparable to the basic domain of wild type tat
same,inhibition of host cell replication,HuT78 cells; 5 uM,no apparent inhibition of host cell replication
same,effect on cell replication,"HuT78 cells; 100 uM, separate experiments",no significant detrimental effect on cell replication
same,specificity of TAR binding compared with yeast tRNA binding,yeast tRNA,specificity of binding has also been confirmed
"CC(=O)N[C@H](CCCNC(=N)N)C(=O)N[C@H](CCCCN)C(=O)N[C@H](CCCCN)C(=O)N[C@H](CCCNC(=N)N)C(=O)N[C@H](CCCNC(=N)N)C(=O)N[C@H](CCC(N)=O)C(=O)N[C@H](CCCNC(=N)N)C(=O)N[C@H](CCCNC(=N)N)C(=O)N[C@H](CCCNC(=N)N)C(N)=O [4G, acetyl-[D-(Arg--Lys--Lys--Arg--Arg--Gln--Arg--Arg--Arg)]--NH2]",HIV inhibition / resistance to viral infection,HIV (strain NL4-3); 5 uM concentration,positive effects on HIV inhibition
same,PH Titers,"HIV (strain NL4-3); 7 Day Pretreatment, Day 4 after infection, listed as 4G1",312.1 pg/mL
same,PH Titers,"HIV (strain NL4-3); 7 Day Pretreatment, Day 4 after infection, listed as 4G2",336.1 pg/mL
same,PH Titers,"HIV (strain NL4-3); 7 Day Pretreatment, Day 7 after infection, listed as 4G1",371.5 pg/mL
same,PH Titers,"HIV (strain NL4-3); 7 Day Pretreatment, Day 7 after infection, listed as 4G2",446.8 pg/mL
same,PH Titers,"HIV (strain NL4-3); 24 Hrs Pretreatment, Day 4 after infection, listed as 4G1",340.9 pg/mL
same,PH Titers,"HIV (strain NL4-3); 24 Hrs Pretreatment, Day 4 after infection, listed as 4G2",356.9 pg/mL
same,PH Titers,"HIV (strain NL4-3); 24 Hrs Pretreatment, Day 7 after infection, listed as 4G1",721.1 pg/mL
same,PH Titers,"HIV (strain NL4-3); 24 Hrs Pretreatment, Day 7 after infection, listed as 4G2",851.8 pg/mL
Arg--Lys--Lys--Arg--Arg--Gln--Arg--Arg--Arg,tat antagonist activity,tat,Weak tat antagonist activity
